Structures can show the parent of a compound that is named as a salt.
Key:
sugar beet callus [1] = experiment: Shoot formation from sugar beet callus in DZNep-supplemented medium; format: cell-based, Beta vulgaris; conditions: 8 days
Source text: The applied method is based on the publication by Kischenko et al. (2005. Production of transgenetic sugarbeet (Beta vulgaris L.) plants resistant to phosphinothricin. Cell biology international, 29(1), 15-19.). This method relies on the induction of friable callus derived from cotyledons and hypocotyl explants. Method is genotype dependent.
• 1. Micropropagated shoots of the genotype 9BS0448 were used as starting material. Shoots were multiplied in MS salts supplemented with 30 g/l sucrose and 0.25 mg/l benzyladenine (BAP). • 2. To induce friable callus, leaf explants were isolated from micropropagated shoots and incubated in medium containing MS salts including 15 g/l sucrose and 2 mg/l BAP at 28°C in the dark for 7 weeks.
• 3. Friable calli of step 2 were harvested and placed in medium containing MS salts, 30 g/l sucrose, 1 mg/l GA3 and 1 mg/l TDZ, and transferred to separate dishes as control. Similar amount of friable calli were harvested and placed in the same medium supplemented with 0.4 mg/l DZNep. • 4. The dishes were incubated under the light/dark regime (16 h/8 h) at 24°C for 8 days. • 5. Developing shoots were counted under a stereomicroscope, in order to estimate the regeneration capacity.

Sugar beet plants = experiment: Plant growth after regeneration from shoots induced with temporary DZNep treatment; format: in vivo, Beta vulgaris; conditions: shoots from DZNep plates transferred into normal growth medium without DZNep, compared with shoots from control plates
Source text: Beside the increased capability for shoot formation the inventors observed that shoots harvested from the control plates and from the plates supplied with DZNep and subsequently transferred into the container with normal growth medium (without DZNep), developed to plant with different biomass and vitality. […] Thus, the DZNep treatment affects also positively the plant growth after regeneration.

sugar beet callus [2] = experiment: Shoot formation after particle bombardment of sugar beet callus; format: cell-based, Beta vulgaris
Protocol: • 1. Friable calli were produced as described above in steps 1 and 2 of Example 1. • 2. An osmotic treatment was carried out by incubating the harvested calli in a medium containing MS salts, 30 g/l sucrose,1 mg/l GA3,1 mg/l Thidiazuron (TDZ),10 g/l agar, pH 6.0, 36 g/l mannitol and 36 g/l sorbitol for 2.5 h at room temperature in the dark. • 3. Preparation and DNA coating of the gold particles was done by standard procedures, as describe in the PDS-1000/He instruction manual. The plasmid pZFNnptll with the red fluorescent marker, tdT, (see Figure 2) was coprecipitated with gold particles. • 4. Calli were bombarded with a PDS-1000/He unit (Bio-Rad), using 30 ng gold particles coated with 500 ng DNA per shot. The rupture pressure was 450 psi and the target tissue was placed at 9 cm distance from the stopping screen. • 5. After bombardment, aliquots of calli tissue were incubated in medium containing MS salts, 30 g/l sucrose, 1 mg/l GA3 and 1 mg/l TDZ, with and without 0.4 mg/l DZNep, in light/dark (16h/8h), at 24 °C for 10 days on separate plates. As a control for standard regeneration, non-bombarded aliquots of calli were treated in the osmotic medium and directly transferred to above medium without DZNep. Shoot number was scored by using a standard binocular.

Nc1nccc2c1ncn2[C@@H]1C=C(CO)[C@@H](O)[C@H]1O [DZNep, 3-Deazaneplanocin A hydrochloride]
mean value of shoots per 1 g callus tissue (sugar beet callus [1]; 0.4 mg/l DZNep in shoot induction medium, genotype 9BS0448, 24°C, light/dark 16 h/8 h, control 13.9): 27.1 shoots per 1 g callus tissue | increase of shoots per 1 g callus tissue compared to control (sugar beet callus [1]; 0.4 mg/l DZNep versus control without DZNep): 95% | plant biomass and vitality after regeneration (Sugar beet plants): significantly bigger and more vital | increase of shoots per plate compared to the bombarded control (sugar beet callus [2]; bombarded calli with 0.4 mg/l DZNep versus bombarded control with standard medium): 207% | increase of shoots per plate compared to the non-bombarded control (sugar beet callus [2]; bombarded calli with 0.4 mg/l DZNep versus non-bombarded control without DZNep): 108% | mean value of shoots per plate (sugar beet callus [2]; bombarded calli, 0.4 mg/l DZNep in medium, 10 days, 24 °C, non-bombarded control 4, bombarded control 2.7): 8.3 shoots per plate

Source: patent EP3545756A1, “REGENERATION OF PLANTS IN THE PRESENCE OF INHIBITORS OF THE HISTONE METHYLTRANSFERASE EZH2” (KWS SAAT SE & Co. KGaA, priority 2018, dated 2019)
